Laboratory results: publication PMC11909324 (Journal of the Science of Food and Agriculture, 2024)
Where “and” joins values, the source holds several entries; their conditions need not be identical. Equal entries are not always repeated. Where two headings read alike, the source gives them in different places.

Key:
[1] = target: T1, xanthine oxidase (XO) (Bos taurus, UniProt P80457); experiment: Fluorescence quenching studies of polyphenol-XO complexes; assay type: binding, bovine; conditions: for Log K SV ± SEM (Stern–Volmer quenching constant): K SV in L mol^−1
T1 construct: XO (from bovine milk); purchased Merck (Darmstadt, Germany); host or cells: bovine milk (natural source)
T1 sequence (P80457 whole entry): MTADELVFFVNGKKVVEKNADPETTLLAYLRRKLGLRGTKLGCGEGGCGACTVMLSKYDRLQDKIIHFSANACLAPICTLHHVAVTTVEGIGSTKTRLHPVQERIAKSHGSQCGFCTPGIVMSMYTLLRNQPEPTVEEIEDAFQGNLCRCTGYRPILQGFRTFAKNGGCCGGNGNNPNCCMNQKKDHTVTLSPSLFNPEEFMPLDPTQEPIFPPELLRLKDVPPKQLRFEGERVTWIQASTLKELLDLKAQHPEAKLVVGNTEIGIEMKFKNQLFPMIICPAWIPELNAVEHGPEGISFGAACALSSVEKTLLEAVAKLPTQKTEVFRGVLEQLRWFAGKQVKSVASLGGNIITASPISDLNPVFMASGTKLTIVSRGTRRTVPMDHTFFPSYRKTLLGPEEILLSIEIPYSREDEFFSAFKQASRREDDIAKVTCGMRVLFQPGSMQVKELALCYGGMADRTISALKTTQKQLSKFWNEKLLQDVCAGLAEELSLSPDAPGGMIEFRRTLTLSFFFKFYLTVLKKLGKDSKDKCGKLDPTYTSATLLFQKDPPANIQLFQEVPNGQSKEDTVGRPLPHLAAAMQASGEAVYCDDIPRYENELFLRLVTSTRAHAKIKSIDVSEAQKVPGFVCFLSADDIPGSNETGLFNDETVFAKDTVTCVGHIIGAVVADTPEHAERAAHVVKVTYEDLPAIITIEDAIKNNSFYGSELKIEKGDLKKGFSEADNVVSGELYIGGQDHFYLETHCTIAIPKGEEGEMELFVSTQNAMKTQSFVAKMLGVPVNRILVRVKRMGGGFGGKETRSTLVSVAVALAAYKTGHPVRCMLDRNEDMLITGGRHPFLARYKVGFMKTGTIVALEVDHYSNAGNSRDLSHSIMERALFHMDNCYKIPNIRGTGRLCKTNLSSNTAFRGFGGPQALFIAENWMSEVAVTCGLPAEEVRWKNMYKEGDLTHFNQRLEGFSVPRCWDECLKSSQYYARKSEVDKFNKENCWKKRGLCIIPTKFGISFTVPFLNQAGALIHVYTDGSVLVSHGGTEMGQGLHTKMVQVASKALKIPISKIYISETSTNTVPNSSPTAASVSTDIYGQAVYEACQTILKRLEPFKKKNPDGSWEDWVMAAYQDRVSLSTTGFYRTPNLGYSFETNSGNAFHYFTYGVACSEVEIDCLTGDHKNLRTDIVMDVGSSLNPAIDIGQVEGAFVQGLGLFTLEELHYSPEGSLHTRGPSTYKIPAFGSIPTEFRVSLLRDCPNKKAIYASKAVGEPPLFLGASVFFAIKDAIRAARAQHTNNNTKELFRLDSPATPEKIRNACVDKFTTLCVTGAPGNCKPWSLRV
Procedure: Increasing concentrations of polyphenols (0, 2, 4, 6, 8 and 10 μmol L^−1) were added to a standard amount of XO (0.4 μmol L^−1) in sodium phosphate buffer (0.05 mol L^−1, pH 7.5). Then, the emission spectra of XO were recorded using 280 nm excitation wavelength. The inner‐filter effects of silymarin components/metabolites were corrected based on the following equation[39], [41], [42]: (1) Icor=Iobs×e^Aex+Aem/2 where I cor is the corrected and I obs is the observed emission intensity; while A ex and A em are the absorbance of polyphenols at the excitation and emission wavelengths applied, respectively. Polyphenol‐induced fluorescence quenching was evaluated at 335 nm. Stern–Volmer quenching constants (K SV; unit: L mol^−1) of polyphenol–XO complexes were determined using the graphical application of the Stern–Volmer equation[43], [44], [45]: (2) I0/I=1+KSV×Q where I 0 and I are the emission signals of XO without and with the polyphenols tested, respectively, and [Q] denotes the molar concentration (mol L^−1) of the quencher (polyphenols). The binding constants (K; unit: L mol^−1) of polyphenol–XO complexes were calculated applying the modified Stern–Volmer equation[43], [44], [45]: (3) I0/I0−I=1/fa×K×1/Q+1/fa where I 0, I and [Q] have the same meaning as in Eqn (2), and f a is the fraction of the accessible fluorophore.

[2] = target: T1, xanthine oxidase (XO); experiment: XO assay with xanthine as substrate (uric acid formation, HPLC-UV); assay type: biochemical, bovine; conditions: for IC50: XO 0.0003 U mL^−1, 8 min, 37 °C, pH 7.5, read-out: IC50, xanthine oxidation; for α = IC50 of flavonoid/IC50 of positive control, xanthine oxidation: relative to APU;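 for all read-outs here: incubations in 0.05 mol L^−1 sodium phosphate buffer, with uric acid and remaining xanthine both quantified by HPLC-UV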
[3] = target: T1, xanthine oxidase (XO); experiment: Reversibility of XO inhibition (preincubation, increasing xanthine concentrations); assay type: biochemical, bovine; conditions: SBS 5 μmol L^−1, DSC and DSCS 0.5 μmol L^−1; 10 min preincubation; xanthine 5, 25, 50 μmol L^−1
Procedure: After 8 min incubation (700 rpm, 37 °C), the reaction was stopped, and the samples were treated in the same way as described in the previous paragraph.

[4] = target: T1, xanthine oxidase (XO); experiment: XO assay with 6MP as substrate (6-thiouric acid formation, HPLC-UV); assay type: biochemical, bovine; conditions: for IC50: XO 0.01 U mL^−1, 25 min, 37 °C, pH 7.5, read-out: IC50, 6MP oxidation; for IC50(6MP)/IC50(xanthine): ratio of IC50 values with the two substrates; for α = IC50 of flavonoid/IC50 of positive control, 6MP oxidation: relative to APU;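 for all read-outs here: incubation in 0.05 mol L^−1 sodium phosphate buffer, with 6MP and 6-thiouric acid quantified by HPLC-UV and conversion taken as the product share of substrate plus product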
[5] = in vivo; cited from earlier work
[6] = λex 280 nm, λem 335 nm, XO 0.4 μmol L^−1, pH 7.5
[7] = association constant K in L mol^−1, λex 280 nm, λem 335 nm, XO 0.4 μmol L^−1, pH 7.5, read-out: Log K ± SEM (binding constant, modified Stern–Volmer) (converted)
[8] = inhibitor 20 μmol L^−1, 6MP 5 μmol L^−1
[9] = inhibitor 20 μmol L^−1, xanthine 5 μmol L^−1
[10] = association constant K in L mol^−1, λex 280 nm, λem 335 nm, XO 0.4 μmol L^−1, pH 7.5

SMILES | Log K SV ± SEM (Stern–Volmer quenching constant) [1, 6] | IC50 ([2]; xanthine 5 μmol L^−1) | α = IC50 of flavonoid/IC50 of positive control, xanthine oxidation [2] | IC50 ([4]; 6MP 5 μmol L^−1) [nM] | decrease in 6-thiouric acid formation (inhibition of XO-catalyzed 6MP oxidation) [4, 8] | IC50(6MP)/IC50(xanthine) [4] | α = IC50 of flavonoid/IC50 of positive control, 6MP oxidation [4] | decrease in uric acid production (inhibition of XO-catalyzed xanthine oxidation) [2, 9] | further results
COc1cc([C@@H]2Oc3c(O)cc(-c4oc5cc(O)cc(O)c5c(=O)c4O)cc3[C@H]2CO)ccc1O [DSC, 3,5,7‐trihydroxy‐2‐[(2R,3S)‐7‐hydroxy‐2‐(4‐hydroxy‐3‐methoxyphenyl)‐3‐(hydroxymethyl)‐2,3‐dihydro‐1‐benzofuran‐5‐yl]chromen‐4‐one] | 4.68 ± 0.01 | 90 nM | 0.35 | 290 | marked decreases | 3.2 | 0.07 | – | Kd [1, 7]: 7760 nM; Kd ([1]; fluorescence quenching, read-out: K (binding constant) of polyphenol–XO complex): < 10000 nM; fold stronger inhibitor of xanthine oxidation compared to SC ([2]; based on IC50 values): 50 fold; XO-catalyzed uric acid formation ([2]; inhibitor 5 μmol L^−1, xanthine 5 μmol L^−1): almost completely abolished; inhibition at 20 µM ([2]; inhibitor 20 μmol L^−1, xanthine 5 μmol L^−1, read-out: decrease in uric acid production (inhibition of XO-catalyzed xanthine oxidation)): 96%; reversibility of the inhibitory action on XO [3]: reversible; fold stronger inhibition than APU, 6MP assay ([4]; based on IC50 values): ~15 fold; XO-catalyzed 6-thiouric acid formation ([4]; inhibitor 5 μmol L^−1, 6MP 5 μmol L^−1): almost completely abolished; inhibition at 20 µM ([4]; inhibitor 20 μmol L^−1, 6MP 5 μmol L^−1, read-out: decrease in 6-thiouric acid formation (inhibition of XO-catalyzed 6MP oxidation)): > 80%
COc1cc([C@@H]2Oc3cc([C@H]4Oc5cc(O)cc(O)c5C(=O)[C@@H]4O)ccc3O[C@H]2CO)ccc1O [SB, (2R,3R)‐3,5,7‐trihydroxy‐2‐[(2S,3S)‐3‐(4‐hydroxy‐3‐methoxyphenyl)‐2‐(hydroxymethyl)‐2,3‐dihydro‐1,4‐benzodioxin‐6‐yl]‐2,3‐dihydrochromen‐4‐one] | 4.49 ± 0.01 | – | – | – | weak to moderate inhibitors | – | – | only weak inhibitors | Kd [1, 7]: 13500 nM
Oc1cc(O)c2c(c1)O[C@H](c1cc(O)c(O)c(O)c1)[C@H](O)C2 [EGC, epigallocatechin] | – | – | – | – | only slight inhibitory action | – | – | did not cause significant changes | –
COc1cc([C@H]2Oc3cc([C@H]4Oc5cc(O)cc(O)c5C(=O)[C@@H]4O)ccc3O[C@@H]2CO)ccc1OS(=O)(=O)O [SAS, silybin A‐20‐O‐sulfate] | 4.58 ± 0.03 | 1400 nM and 1430 nM | 5.50 | 2910 | – | 2.0 | 0.69 | more than 80% | Log K ± SEM (binding constant, modified Stern–Volmer) [1, 10]: 4.99 ± 0.05
O=C(O)[C@H]1O[C@@H](Oc2cc(O)cc(/C=C/c3ccc(O)cc3)c2)[C@H](O)[C@@H](O)[C@@H]1O [R3G, resveratrol‐3‐glucuronide] | – | – | – | – | not significant | – | – | 10% | peak plasma concentrations [5]: 10 to 20 µmol/L
O=C(O[C@@H]1Cc2c(O)cc(O)cc2O[C@@H]1c1cc(O)c(O)c(O)c1)c1cc(O)c(O)c(O)c1 [EGCG, epigallocatechin gallate] | – | – | – | – | weak to moderate inhibitors | – | – | approximately 50% | –
COc1cc([C@@H]2Oc3c(O)cc([C@H]4Oc5cc(O)cc(O)c5C(=O)[C@@H]4O)cc3[C@H]2CO)ccc1O [SC, silychristin] | 4.43 ± 0.01 | 4500 nM | 17.3 | 10000 | – | 2.2 | 2.38 | – | Log K ± SEM (binding constant, modified Stern–Volmer) [1, 10]: 4.81 ± 0.01
Oc1ncnc2[nH]ncc12 [APU, allopurinol, reference compound] | – | – | – | – | marked decreases | – | – | almost completely abolished metabolite formation | –
